Experimental data as given in US11963962B2, “Platelet count-agnostic methods of treating myelofibrosis” (Sierra Oncology, Inc., priority 2018, dated 2024).
Marks after values point to notes of the source that are not given here.

What was measured:
Format in all cases: in vivo, human
[1] = system: myelofibrosis; experiment: SIMPLIFY-2 Phase 3 trial: overall survival
Source text: (§1) In the SIMPLIFY-2 trial (NCT02101268), the efficacy and safety of MMB was studied in anemic or thrombocytopenic subjects with myelofibrosis who were previously treated with ruxolitinib (RUX). […] Specifically, anemic or thrombocytopenic myelofibrosis patients who had and were previously treated with (RUX) (for at least 28 days) were studied over 24 weeks for response to MMB versus best available treatment (BAT), primarily RUX (89% of patients) but alternatively no treatment or other standard interventions, after which period all patients could receive extended MMB treatment. Previously treated RUX patients who either required red blood cell transfusions or RUX dose reduction with grade 3 thrombocytopenia, anemia, and/or bleeding at grade 3 or worse, with palpable spleen of at least 5 cm and without grade 2 or greater peripheral neuropathy were included in the trial. There was no lower limit for the required baseline platelet count. The primary endpoint was a reduction by at least 35% in the spleen volume at 24 weeks compared with baseline.

[2] = system: myelofibrosis; experiment: SIMPLIFY-1 Phase 3 trial: splenic response rate (SRR); conditions: for SRR Responders / SRR proportion (Wilson 95% CI) / SRR Absolute risk difference (Newcombe 95% CI): SIMPLIFY 1, 24 weeks; for SRR Absolute risk difference (Newcombe 95% CI): MMB vs Control
Procedure: (§2) In the SIMPLIFY-1 trial (NCT01969838), the efficacy and safety of MMB versus ruxolitinib (RUX) was studied in patients with myelofibrosis who were naïve to treatment with a JAK inhibitor and a platelet count of ≥50×10^9/L. Patients (N=432) with high risk or intermediate-2 risk or symptomatic intermediate-1 risk myelofibrosis received 24 weeks of treatment with 200 mg MMB once daily or 20 mg RUX twice a day (or per label), after which all patients could receive open-label momelotinib. […] The primary endpoint was a reduction by at least 35% in the spleen volume at 24 weeks compared with baseline.
(§3) FIG. 8A: SIMPLIFY-1 study of MMB in a first line population previously untreated with JAKi. For SIMPLIFY-1, the goal was non-inferiority over ruxolitinib (RUX) (MMB: N=215 subjects, and RUX: N=217 subjects). FIG. 8B: SIMPLIFY-2 study of second line population of anemic or thrombocytopenic subjects previously treated with RUX (red blood cell (RBC) transfusions on RUX=64%. RUX dose adjustment for: thrombocytopenia=21%; anemia/hematoma=35%). For SIMPLIFY-2, the goal was superiority over best available treatment (BAT) (MMB: N=104 subjects, and BAT: N=52 subjects). In both SIMPLIFY-1 and SIMPLIFY: Primary endpoint: >=35% reduction in spleen volume at 24 weeks. Secondary endpoints: Total symptom score (TSS) response at 24 weeks. Effects on RBC transfusion requirements.
The SIMPLIFY 1 clinical trial data was reanalyzed for subgroups of subjects having particular baseline platelet counts in the MMB versus RUX arms of the study.
Patient data was analyzed according to the following baseline platelet count (PLT) subgroups and in particular according to the threshold PLT of 150×10^9/L: 1) PLT<50×10^9/L; 2) 50×10^9/L≤PLT<100×10^9/L; 3) 100×10^9/L≤PLT<150×10^9/L. The reanalyzed data is presented in Table 13 (SIMPLIFY 1). Selected data is also illustrated in the following figures.

[3] = system: myelofibrosis; experiment: SIMPLIFY-1 dynamic and time-to-event analyses of RBC transfusions
Source text: The SIMPLIFY-1 (S1) trial, a double-blind, active-controlled Phase 3 study in which 432 patients received randomized treatment with MMB or RUX for 24 weeks was previously reported (Mesa R A, Kiladjian J J, Catalano J V. et al. “Simplify-1: A phase III randomized trial of momelotinib versus ruxolitinib in j anus kinase inhibitor—naïve patients with myelofibrosis”, Journal of Clinical Oncology, 2017; 35:3844-50).
Since transfusion burden is of significant concern to clinicians and patients, to better understand the dynamics of RBC transfusions we further examined the S1 data through statistical models utilizing a variety of novel anemia benefit endpoints including time until transfusion and overall intensity of transfusions across time. The proportions of patients with 0 and 4 transfusions were calculated and time-to-event analyses examining time-to-first and time-to-fifth units transfused also conducted. Since transfusions typically comprise 2 units, the fifth unit transfused represents a de facto third transfusion event. The number of units transfused were also considered to be recurrent events and examined with and without patients' baseline characteristics as covariates. Finally, a mixture model, based on a zero-inflated negative binomial (ZINB) distribution fit to the transfusion data, was employed to compare between the treatment groups the proportions of subjects with zero transfusion burden and the mean transfusion rates.

[4] = system: myelofibrosis; experiment: SIMPLIFY-1 Phase 3 trial: safety (anemia, platelet counts, hemoglobin)
Procedure: as §2
The mean platelet count for RUX patients is demonstrably lower than the mean platelet count for MMB patients.
The MMB subjects were thus at lower risk of developing thrombocytopenia (e.g., Grade 3 or 4 thrombocytopenia), or of having to undergo undesirable dose reduction because they were able to largely maintain their platelet counts during therapy.

[5] = system: myelofibrosis; experiment: SIMPLIFY-2 Phase 3 trial: total symptom score (TSS) response; conditions: for TSS Responders / TSS proportion (Wilson 95% CI) / TSS Absolute risk difference (Newcombe 95% CI): SIMPLIFY 2; for TSS Absolute risk difference (Newcombe 95% CI): MMB vs Control
Source text: as §1, §3
The SIMPLIFY 2 clinical trial data was reanalyzed for subgroups of subjects having particular baseline platelet counts in the MMB versus BAT arms of the study.
Patient data was analyzed according to the following baseline platelet count (PLT) subgroups and in particular according to a threshold PLT of 150×10^9/L: 1) PLT<50×10^9/L; 2) 50×10^9/L≤PLT<100×10^9/L; 3) 100×10^9/L≤PLT<150×10^9/L. The reanalyzed data is presented in Table 14 (SIMPLIFY 2).

[6] = SIMPLIFY-1, 24 week randomized treatment period

Cl.N#CCNC(=O)c1ccc(-c2ccnc(Nc3ccc(N4CCOCC4)cc3)n2)cc1 [MMB, N-(cyanomethyl)-4-(2-(4-morpholinophenylamino)pyrimidin-4-yl)benzamide]
mOS [1]: 28 months | SRR Responders ([2]; 50 ≤ PLT < 100 ×10^9/L): 7 | SRR proportion (Wilson 95% CI) ([2]; 50 ≤ PLT < 100 ×10^9/L): 0.39 | SRR Absolute risk difference (Newcombe 95% CI) ([2]; 50 ≤ PLT < 100 ×10^9/L): 0.39 | SRR Responders ([2]; 100 ≤ PLT < 150 ×10^9/L): 4 | SRR proportion (Wilson 95% CI) ([2]; 100 ≤ PLT < 150 ×10^9/L): 0.14 | SRR Absolute risk difference (Newcombe 95% CI) ([2]; 100 ≤ PLT < 150 ×10^9/L): 0.08 | SRR Responders ([2]; ITT): 57 | SRR proportion (Wilson 95% CI) ([2]; ITT): 0.27 | SRR Absolute risk difference (Newcombe 95% CI) ([2]; ITT): −0.03 | subjects who did not achieve a spleen response on ruxolitinib but did so after 24 weeks of additional momelotinib treatment ([2]; SIMPLIFY 1, crossover arm): 16.5% | spleen response (SRR) at any time in the open label phase ([2]; SIMPLIFY 1, momelotinib arm): 46.2% | SRR ([2]; SIMPLIFY 1, overall): 26.5% | SRR ([2]; SIMPLIFY 1, week 24, ITT, all patients): 27% | SRR ([2]; SIMPLIFY 1, week 24, ITT, platelets 50-100 (subgroup 2)): 39% | SRR ([2]; SIMPLIFY 1, week 24, ITT, platelets 100-150 (subgroup 3)): 14% ‡ | SRR ([2]; SIMPLIFY 1, week 24, baseline TSS ≥ 6, all patients): 25% | SRR ([2]; SIMPLIFY 1, week 24, baseline TSS ≥ 6, platelets 50-100 (subgroup 2)): 43% | SRR ([2]; SIMPLIFY 1, week 24, baseline TSS ≥ 6, platelets 100-150 (subgroup 3)): 14% ‡ | SRR ([2]; SIMPLIFY 1, week 24, baseline TSS ≥ 10, all patients): 24% | SRR ([2]; SIMPLIFY 1, week 24, baseline TSS ≥ 10, platelets 50-100 (subgroup 2)): 42% | SRR ([2]; SIMPLIFY 1, week 24, baseline TSS ≥ 10, platelets 100-150 (subgroup 3)): 13% ‡ | spleen response compared with RUX ([2]; SIMPLIFY 1, p=0.011): statistically non-inferior to RUX | Kaplan-Meier estimate of the proportion of patients who did not require any units transfused [3, 6]: 73% | proportion of patients requiring 4 or fewer units [3, 6]: 83% | factor of increase of the odds of having zero units transfused ([3]; SIMPLIFY-1, first 24 weeks, ZINB covariate model, MMB vs RUX): 9.3 | hazard ratio, units transfused as recurrent events ([3]; SIMPLIFY-1, MMB vs RUX, models with and without baseline covariates): 0.522 | anemia rate ([4]; SIMPLIFY 1): 14% | ≥Grade 3 anemia rate ([4]; SIMPLIFY 1): 6% | platelet counts during treatment ([4]; SIMPLIFY 1, 24 week double blind phase, FIGS. 31-33): able to maintain platelet levels | hemoglobin change ([4]; SIMPLIFY 1, after initiating MMB, FIG. 10): rapid and sustained hemoglobin improvement | TSS symptom response ([5]; SIMPLIFY 2, second line patients): 26.2% | TSS Responders ([5]; 50 ≤ PLT < 100 ×10^9/L): 9 | TSS proportion (Wilson 95% CI) ([5]; 50 ≤ PLT < 100 ×10^9/L): 0.27 | TSS Absolute risk difference (Newcombe 95% CI) ([5]; 50 ≤ PLT < 100 ×10^9/L): 0.27 | TSS Responders ([5]; 100 ≤ PLT < 150 ×10^9/L): 6 | TSS proportion (Wilson 95% CI) ([5]; 100 ≤ PLT < 150 ×10^9/L): 0.25 | TSS Absolute risk difference (Newcombe 95% CI) ([5]; 100 ≤ PLT < 150 ×10^9/L): 0.25 | TSS Responders ([5]; ITT): 27 | TSS proportion (Wilson 95% CI) ([5]; ITT): 0.26 | TSS Absolute risk difference (Newcombe 95% CI) ([5]; ITT): 0.20 | TSS Responders ([5]; PLT < 50 ×10^9/L): 1 | TSS proportion (Wilson 95% CI) ([5]; PLT < 50 ×10^9/L): 0.11 | TSS Absolute risk difference (Newcombe 95% CI) ([5]; PLT < 50 ×10^9/L): −0.03
